How the values were obtained:
[1] = test system: giant foxtail (SETFA); assay: Test 3 field trial, emerged weeds before corn planting; format: in vivo, Setaria faberi; conditions: 68 DAA; Cpd 2 100, glyphosate 1540, paraquat 1150 g a.i./ha, alone or combined
Excerpt: (§1) Corn seeds (hybrid ‘Pioneer 33J56’) were planted in early spring season, 3.8 cm deep in a silt loam soil having 2.4% organic matter and a pH of 6. Plots were 6.1 m long by 2.7 m wide with rows spaced 91.4 cm apart. The field was managed using no-till practices. […] Compound 2 and paraquat treatments, alone and in combination, also included a surfactant. Glyphosate, alone and with Compound 2, included ammonium sulfate in the treatment mixture. […] The effects on the weeds in the treated plots and untreated control plots were recorded 30, 42, 46 and 68 days after application. Most of the weed species could not be evaluated at every timing. Corn response was not evaluated because the growth was highly variable depending on the efficacy of the weed control treatments. […] Results are the means of the three replicates.

[2] = test system: Russian thistle (SASKR); assay: Test 23 growth chamber, postemergence; format: in vivo, Salsola kali; conditions: 21 DAA
Experimental: (§2) A test was conducted to evaluate the effects on winter barley (HORVW, Hordeum vulgare L.), winter wheat (TRZAW, Triticum aestivum L.), and several weed species of mixtures of Compound 2 with the commercial herbicides (2,4-dichlorophenoxy)acetic acid (2,4-D) and (4-chloro-2-methylphenoxy)acetic acid (MCPA), auxin mimics. […] Plants were treated postemergence at the 2-4 leaf growth stage, and each treatment was replicated three times. […] Plants were watered as needed. […] Results are means of the three replicates.

[3] = test system: galium (GALAP); assay: Test 21 growth chamber, postemergence; format: in vivo, Galium aparine; conditions: 19 DAA
Experimental: as §2, with “species,” for “species”, “herbicide” for “herbicides”, “(2,4-D), an” for “(2,4-D) and (4-chloro-2-methylphenoxy)acetic acid (MCPA),”, “mimic.” for “mimics.”, “one time.” for “three times.”, “from single” for “means of the three”

[4] = test system: Virginia pepperweed (LEPVI); assay: Test 3 field trial, emerged weeds before corn planting; format: in vivo, Lepidium virginicum; conditions: Cpd 2 100, glyphosate 1540, paraquat 1150 g a.i./ha, alone or combined
Excerpt: as §1

[5] = test system: curly dock (RUMCR); assay: as above; format: in vivo, Rumex crispus; conditions: Cpd 2 100, glyphosate 1540, paraquat 1150 g a.i./ha, alone or combined
Excerpt: as §1

[6] = test system: red deadnettle (LAMPU); assay: Test 9 field trial, emerged weeds before corn planting; format: in vivo, Lamium purpureum; conditions: g a.i./ha: Cpd 2 100, Glyphosate 1540, Paraquat 1150
Experimental: (§3) Corn seeds (hybrid ‘Pioneer 34M91 RR’) were planted in mid spring season, about 3.8 cm deep in a silty clay loam soil having a pH of 6.7. Plots were 9.1 m long by 3.0 m. The field was managed using no-till practices. […] Compound 2 and paraquat treatments, alone and in combination, also included a surfactant. Glyphosate, alone and with Compound 2, included ammonium sulfate in the treatment mixture. […] The effects on the weeds in the treated plots and untreated control plots were recorded 7, 14, 23, 30 and 57 days after application. Most of the weed species could not be evaluated at every timing. Corn response was only evaluated 57 days after application. […] Results are the means of the three replicates.

[7] = test system: common blackjack (BIDPI); assay: Test 12 field trial, preemergence; format: in vivo, Bidens pilosa; parameters: scale not given here; conditions: Cpd 2 or Cpd 1 62 g a.i./ha, Diuron 2000 g a.i./ha
Excerpt: In early-mid spring season, corn seeds (hybrid ‘Pioneer 3041’) were planted 5 cm deep and sugarcane nodes (variety RB-72.454) were planted 10 cm deep in separate plots in a clay soil having 2.6% organic matter and a pH of 5.6. Plots were 24 m long by 1.5 m wide with rows spaced 80 cm (corn) or 140 cm (sugarcane) apart. Corn seeds were spaced 15 cm apart and sugarcane nodes were spaced 10 cm apart within the rows. At the same time, weed seeds were broadcast over the surface of separate plots without a crop, one weed species per plot. The weed plots were rotary tilled to incorporate the weed seeds to a variety of depths. The field was managed using conventional tillage practices.

[8] = test system: common chickweed (STEME); assay: Test 23 growth chamber, postemergence; format: in vivo, Stellaria media; conditions: 21 DAA
Experimental: as §2

[9] = test system: bushy wallflower (ERYRE); assay: Test 9 field trial, emerged weeds before corn planting; format: in vivo, Erysimum repandum; conditions: g a.i./ha: Cpd 2 100, Glyphosate 1540, Paraquat 1150
Experimental: as §3

[10] = test system: kochia (KCHSC); assay: Test 22 growth chamber, postemergence; format: in vivo, Kochia scoparia; conditions: 25 DAA
Experimental: as §2, with “stage, except KCHSC, SASKR” for “stage,”, “STEME which were in the 4-8 leaf growth stage. Each” for “each”, “one time.” for “three times.”, “from single” for “means of the three”

[11] = test system: common lambsquarters (CHEAL); assay: Test 23 growth chamber, postemergence; format: in vivo, Chenopodium album; conditions: 21 DAA
Experimental: as §2

[12] = 2,4-D or MCPA alone 250 g a.i./ha

Compound	SETFA Obs [1] [%]	LEPVI Obs ([4]; 30 DAA) [%]	LEPVI Obs ([4]; 42 DAA) [%]	LEPVI Obs ([4]; 46 DAA) [%]	RUMCR Obs ([5]; 30 DAA) [%]	RUMCR Obs ([5]; 42 DAA) [%]	RUMCR Obs ([5]; 46 DAA) [%]	RUMCR Obs ([5]; 68 DAA) [%]	LAMPU Obs ([6]; 7 DAA) [%]	LAMPU Obs ([6]; 14 DAA) [%]	LAMPU Obs ([6]; 23 DAA) [%]	LAMPU Obs ([6]; 30 DAA) [%]	BIDPI Obs ([7]; 15 DAA)	BIDPI Obs ([7]; 29 DAA)	BIDPI Obs ([7]; 48 DAA)	BIDPI Obs ([7]; 61 DAA)	ERYRE Obs ([9]; 7 DAA) [%]	ERYRE Obs ([9]; 14 DAA) [%]	ERYRE Obs ([9]; 23 DAA) [%]	ERYRE Obs ([9]; 30 DAA) [%]	other results
COC(=O)c1nc(C2CC2)nc(N)c1Cl [Compound 2, methyl 6-amino-5-chloro-2-cyclopropyl-4-pyrimidinecarboxylate]	40	69	18	23	62	37	54	67	45	23	58	65	60	80	80	70	20	3	3	0	Postemergence SASKR Obs ([2]; Cpd 2 alone 4 g a.i./ha): 55; Postemergence SASKR Obs ([2]; Cpd 2 alone 8 g a.i./ha): 63; Postemergence SASKR Obs ([2]; Cpd 2 alone 16 g a.i./ha): 72; Postemergence GALAP Obs ([3]; Cpd 2 alone 16 g a.i./ha): 90; Postemergence STEME Obs ([8]; Cpd 2 alone 4 g a.i./ha): 55; Postemergence STEME Obs ([8]; Cpd 2 alone 8 g a.i./ha): 58; Postemergence STEME Obs ([8]; Cpd 2 alone 16 g a.i./ha): 67; ERYRE Obs ([9]; 57 DAA): 0%; Postemergence KCHSC Obs ([10]; Cpd 2 alone 4 g a.i./ha): 45; Postemergence KCHSC Obs ([10]; Cpd 2 alone 8 g a.i./ha): 50; Postemergence KCHSC Obs ([10]; Cpd 2 alone 16 g a.i./ha): 60; Postemergence CHEAL Obs ([11]; Cpd 2 alone 4 g a.i./ha): 53; Postemergence CHEAL Obs ([11]; Cpd 2 alone 8 g a.i./ha): 55; Postemergence CHEAL Obs ([11]; Cpd 2 alone 16 g a.i./ha): 55
O=C(O)CNCP(=O)(O)O [Glyphosate]	0	98	82	98	75	61	82	93	55	60	77	79					63	74	89	100	LAMPU Obs ([6]; 57 DAA): 95%; ERYRE Obs ([9]; 57 DAA): 100%
O=C(O)COc1ccc(Cl)cc1Cl [2,4-D, (2,4-dichlorophenoxy)acetic acid]																					Postemergence SASKR Obs [2, 12]: 63; Postemergence GALAP Obs ([3]; 2,4-D alone 125 g a.i./ha): 30; Postemergence GALAP Obs ([3]; 2,4-D alone 250 g a.i./ha): 35; Postemergence STEME Obs [8, 12]: 65; Postemergence KCHSC Obs [10, 12]: 60; Postemergence CHEAL Obs [11, 12]: 58
Nc1nc(C2CC2)nc(C(=O)O)c1Cl [Compound 1, 6-amino-5-chloro-2-cyclopropyl-4-pyrimidinecarboxylic acid]													70	80	80	60					

— US20100285959A1, “HERBICIDAL MIXTURES” (priority 2006, published 2010)
